The target of series [1] is T1, hERG channel (Homo sapiens, UniProt Q12809).
T1 construct: expressed in transfected cells; host or cells: HEK-293
Put plainly: Patch clamp assay to test the effect of compound on hERG channel. Conditions: manual patch clamp, HEK 293 cells expressed with hERG, concentration for half maximum effect. The class given is cell-based. The procedure:
10 mL extracellular solution was used to dilute the stock solution, making the final concentrations of test compound were 0.3 μM, 1 μM, 3 μM, 10 μM and 30 μM.
The solubility of compound was visually observed.
The cell line was derived from HEK-293 cells, and grown in a humidified environment at 37° C. under 5% CO2, using the media formulation below. The cell line should not be allowed to exceed 80% confluence within the culture vessel to prevent contact inhibition causing senescence and should thus be passaged every 3/4 days using a seeding density of 2*10^6 cells per T175 flask. Cell lines were be pre-washed with phosphate buffered saline before harvesting with Trypsin/EDTA and seeded into new flasks.
HEK 293 cells expressed with hERG were plated on cover slips overnight with the cell density less than 50% of confluence. Cells used for electrophysiological study were transferred to a small cell bath (1 mL) mounted on the stage of an inverted microscope (Diaphot, Nikon) and were perfused with external solution containing (in mM) 130 NaCl, 4 KCl, 1.8 CaCl2), 1 MgCl2, 10 glucose and 10 HEPES (pH 7.4 with NaOH), the perfusion rate was 4 mL/min. The internal pipette solution contained (in mM) 130 KCl, 1 MgCl2, 5 ethylene glycol-bis(baminoethyl ether)-N,N,N8,N8-tetraacetic acid, 5 MgATP and 10 HEPES (pH 7.2 with KOH). An HEKA EPC-10 patch-clamp amplifier and PATCHMASTER acquisition program were used to record membrane currents (HEKA Instruments IncD-67466 Lambrecht/Pfalz Germany). All experiments were performed at room temperature (22-23° C.).
The Model P-97 micropipette puller (Sutter Instrument Company, One Digital Drive, Novato, Calif. 94949) was used to pull glass patch pipettes (BF150-86-10) in all experiments.
The experiments were initiated with a 2 min vehicle control period after forming a whole cell configuration with less 5% run-down in 5 min and the tail currents in the report were at least greater than 500 pA. After a 2 min vehicle control period, the perfusion was switched to the reservoir containing the compound at the first concentration. The same procedure was repeated 3-5 times so that each cell was exposed to 4-6 escalating concentrations of compound. The time courses for block and unblock of hERG during compounds exposure and washout were continuously recorded.
The peak tail of hERG was generated by applying 2-sec depolarizing every 12 sec steps from a holding potential of −80 mV, the peak of tail currents were measured at a 5-sec repolarizing pulse at −50 mV.
hERG peak tail currents were directly measured from a 5 sec repolarization pulse at −50 mV. The fraction of control current was plotted as a function of logarithm of compound concentration. To determine the concentration of compound for halfmaximum effect, the concentration-response curve was fitted by Hill equation as shown follow.
where Y is the observed value, Bottom is the lowest observed value (0), Top is the highest observed value (1), and the Hillcoefficient gives the largest absolute value of the slope of the curve.
Data were analyzed by a combination of PATCHMASTER ((HEKA Instruments IncD-67466 Lambrecht/Pfalz Germany) and Origin (OriginLab Corporation, Northampton, Mass.) software programs.
Data were expressed as mean±SEM.

Series [2] can be described thus: In vitro metabolic stability in human liver microsome. The class given is in vitro ADME. To be noted: human liver microsomes. The procedure: (§1) 1900 mg MgCl2 was dissolved into a final volume of 400 mL ultra-pure water.
(§2) 17.42 g K2HPO4 and 13.65 g KH2PO4 were dissolved into a final volume of 1000 mL ultra-pure water, respectively. K2HPO4 and KH2PO4 were mixed to prepare 100 mM potassium phosphate (PBS) buffer. The pH value of the final solution was adjusted to pH 7.30±0.10.
(§3) Cold ACN (including 10 ng/mL Labetalol and 10 ng/mL Glibenclamid) was stored at 4° C.
(§4) Working Solution Preparation:
(§5) Verapamil (positive control) and test compound stock solution were diluted into a concentration of 50 μM and 200 μM respectively, using MeOH/ACN/H2O solution (1:1:2, v/v/v).
(§6) 1) 40 μL MgCl2 and 306 μL PBS were added to 96 plate wells (blank, compound wells, compounds without NADPH wells)
(§7) 2) 4 μL compound working solution was added to above wells (blank: 4 μL PBS buffer) (Note: the volume of DMSO in final incubation system ≤0.5%)
(§8) 3) 10 μL microsomes (20 mg/mL) was added in each well. The mixture was warmed up for 10 minutes at 37.0° C.
(§9) 4) 40 μL 10 mM NADPH working solution was added to start reaction. The total volume was 400 μL.
(§10) 5) Aliquots of 50 μL samples were taken from the reaction solution at 0, 5, 15, 45 min. The reaction solutions were stopped by the addition of 400 μL stop solution.
(§11) 6) The sampling plates were shaked for approx. 5 min.
(§12) 7) Samples were centrifuged at 3200 rcf for 10 min. then transferred 50 μL to a new plate dilute with 200 μL H2O for LC/MS/MS analysis.
(§13) Use equation of first order kinetics to calculate t1/2 and CL: […]
(§14) Where k represents elimination constant, which is calculated from a log linear plot of % Remaining versus time. t1/2 represents the half-life. Cprotein is the concentration of liver microsomes.

Series [3] can be described thus: In vitro metabolic stability in rat liver microsome. Conditions: rat liver microsomes. Format: in vitro ADME. The procedure:
as §1, §2, §3, §4, §5, §6, §7, §8, §9, §10, §11, §12, §13, §14

T1 sequence (Q12809 whole entry): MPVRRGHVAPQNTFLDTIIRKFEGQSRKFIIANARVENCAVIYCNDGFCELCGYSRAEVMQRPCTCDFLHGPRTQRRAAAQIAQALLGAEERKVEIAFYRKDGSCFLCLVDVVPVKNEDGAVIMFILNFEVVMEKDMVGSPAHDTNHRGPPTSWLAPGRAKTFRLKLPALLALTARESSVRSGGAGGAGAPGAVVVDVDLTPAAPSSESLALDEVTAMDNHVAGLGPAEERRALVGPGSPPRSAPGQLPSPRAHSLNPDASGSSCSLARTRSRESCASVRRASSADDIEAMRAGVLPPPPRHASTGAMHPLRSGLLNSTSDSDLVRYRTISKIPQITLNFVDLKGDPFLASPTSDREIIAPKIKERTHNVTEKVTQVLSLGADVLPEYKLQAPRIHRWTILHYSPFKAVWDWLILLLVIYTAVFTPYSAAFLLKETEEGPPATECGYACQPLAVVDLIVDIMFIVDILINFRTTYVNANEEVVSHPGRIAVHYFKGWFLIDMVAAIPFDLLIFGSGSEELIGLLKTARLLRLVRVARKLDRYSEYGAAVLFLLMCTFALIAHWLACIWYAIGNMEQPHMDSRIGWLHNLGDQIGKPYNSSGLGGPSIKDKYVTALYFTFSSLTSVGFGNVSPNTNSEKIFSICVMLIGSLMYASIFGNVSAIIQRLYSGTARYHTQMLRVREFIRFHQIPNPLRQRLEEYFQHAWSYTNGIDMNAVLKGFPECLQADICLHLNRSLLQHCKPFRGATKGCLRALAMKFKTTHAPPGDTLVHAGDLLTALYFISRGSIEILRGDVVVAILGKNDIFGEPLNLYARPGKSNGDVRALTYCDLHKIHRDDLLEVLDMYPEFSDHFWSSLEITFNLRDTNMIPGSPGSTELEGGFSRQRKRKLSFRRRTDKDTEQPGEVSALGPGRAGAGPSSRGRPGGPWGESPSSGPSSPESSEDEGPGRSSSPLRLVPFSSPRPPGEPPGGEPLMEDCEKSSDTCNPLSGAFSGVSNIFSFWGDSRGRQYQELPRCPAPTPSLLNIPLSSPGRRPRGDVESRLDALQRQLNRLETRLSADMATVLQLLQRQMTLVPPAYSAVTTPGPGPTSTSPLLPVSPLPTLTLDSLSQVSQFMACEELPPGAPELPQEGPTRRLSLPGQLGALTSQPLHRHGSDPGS

In the case of `N[C@@H]1c2ccccc2CC12CCN(c1nc3[nH]nc(C4(Cc5ccccc5)CC4)c3c(=O)[nH]1)CC2` [Example 74], the IC50 in series [1] came out at 1840 nM. Also, the “CLint Human” value in series [2] is 182.7 μL/min/mg proteins. For the same compound, the “CLint Rat” value in series [3] turned out to be 102.0 μL/min/mg proteins.
In the case of `Cn1c(N2CCC3(CC2)Cc2ccccc2[C@H]3N)nc2[nH]nc(Sc3cccc(Cl)c3Cl)c2c1=O` [Comparative compound 1, reference compound], the IC50 in series [1] came out at 90 nM. Further, the “CLint Human” value in series [2] is 171.8 μL/min/mg proteins. The “CLint Rat” value in series [3] worked out at 89.9 μL/min/mg proteins.

Values taken from patent publication US20230192705A1, “SHP2 INHIBITORS, COMPOSITIONS AND USES THEREOF” (Betta Pharmaceuticals Co., Ltd, priority 2020, published 2023).
